The test system of this assay is HEK293T cells stably transfected with 8×TBD luciferase reporter and pRLTK. Description: YAP Reporter Assay (8×TBD firefly luciferase reporter). The conditions noted are these: Homo sapiens, HEK-293T; HEK293T 8×TBD reporter cells, 24-hr incubation, top concentration 3 μM, 1:3 dilution, 10 points. The format is cell-based. As for the experimental part:
HEK293T cells stably transfected with 8×TBD luciferase reporter and pRLTK in 384-well plates were treated with the test compounds, starting from 3 μM (final concentration in assay plate), 1:3 dilution, and 10 points in quadruplicates. Post 24-hr incubation with compounds at 37° C. and 5% CO2, cells were lysed and 8×TBD-driven firefly luciferase and control TK-driven renilla luciferase activities were measured using Promega Dual-Luciferase Reporter Assay System.
Reagents: The reagents used for this study are: DMEM: Invitrogen #11960077, Dual-Glo Luciferase Assay System: Promega-E2980, Puromycin Dihydrochloride: Invitrogen-A1113803, 384-well plate: PerkinElmer-6007480, L-GLUTAMINE: Invitrogen-25030164, Hygromycin B: Invitrogen-10687010, and Penicillin-Streptomycin: Merk-TMS-AB2-C
Media: The media used for this assay were: Culture Medium: DMEM+1 ug/mL puromycin+200 ug/mL hygromycin (with 10% FBS+1 mM L-glutamine); and Assay Medium: DMEM (with 10% FBS+1 mM L-glutamine+1×P/S).
Cell Plating: The appropriate media was warmed at 37° C. by water bath: Culture Medium, Assay Medium, 1*D-PBS, 0.05% trypsin-EDTA. The cells were trypsinized after removing all media, then washed with 1* sterile D-PBS and then with 2 ml 0.05% trypsin-EDTA. The cells were then incubated at RT for one minute. Then 10 ml/75 cm2 flask Assay Medium was added to each flask. Using a 10 ml pipette, the cells were then gently resuspended in the media, until the clumps completely disappeared. The cells were then transferred into 50 ml centrifuge tubes and were centrifuged at 800 rpm for 5 mins. The medium was removed and the cells were resuspended with Assay Medium. An aliquot of cells was used to count the cell density (cells/ml). The cell suspension was then diluted with Assay Medium to a concentration of 6×10^4 cells/ml. 50 ul cells suspension was then plated to 384-well plate (PerkinElmer-6007480), 3×10^3 cells/well and the cells were incubated in an incubator at 37° C., 5% CO2.
Compound Treatment: In the afternoon (incubation of the plate with 3-4 hrs), the test compounds were added by Echo, starting from 3 uM (final concentration in the assay plate), 1:3 dilution, 10 points, quadruplicates. The plate was placed at 37° C., 5% CO2 incubator for 24 hrs.
Detection: The Dual-Glo Luciferase Reagent was prepared by transferring the contents of one bottle of Dual-Glo Luciferase Buffer to one bottle of Dual-Glo Luciferase Substrate to create the Dual-Glo Luciferase Reagent. Mixing was performed by inversion until the substrate was thoroughly dissolved. After mixing, the reagent was aliquoted into 15 ml tubes. In the afternoon (24 hrs post compound treatment), the DMEM+ medium in the 384 well plates were aspirated by Microplate Washer.
Measuring firefly luciferase activity: 20 ul Dual-Glo Luciferase Reagent was added to the 384-well plates. The plates were protected from light to prevent interference with the assay. The plates were shaken for 1 min followed centrifuging plates at 1000 rpm for 30 seconds. After waiting at least 10 minutes, the firefly luminescence was measured by Envision.
Measuring renilla luciferase activity: 20 ul Stop-Glo Reagent was added to the 384-well plates. The plates were shaken for 1 min and then centrifuged at 1000 rpm for 30 seconds. After waiting at least 10 minutes, the renilla luminescence was measured by Envision.
Compound IC50 and maximum inhibition on the firefly luciferase and renilla luciferase activities were reported separately.
(In general: In a reporter assay the amount or activity of a reporter protein is the signal.)
`CCN(CC)C(=O)c1ccc(Nc2cccc(C(F)(F)F)c2)c(-c2nnn(C)n2)c1` [Compound 20, N,N-diethyl-3-(2-methyl-2H-tetrazol-5-yl)-4-((3-(trifluoromethyl)phenyl)amino) benzamide] gave an IC50 of 100 to 1000 nM.

Turning to `CN(C)C(=O)c1ccc(Nc2ccc(C(F)(F)F)cc2)c(-c2nnn(C)n2)c1` [Compound 13, N,N-dimethyl-3-(2-methyl-2H-tetrazol-5-yl)-4-((4-(trifluoromethyl)phenyl)amino) benzamide], the IC50 is 100 to 1000 nM.

For `O=C(O)c1ccc(Nc2ccc(C(F)(F)F)cc2)c(-c2nnc(C3CC3)o2)c1` [Compound 54, 3-(5-cyclopropyl-1,3,4-oxadiazol-2-yl)-4-((4-(trifluoromethyl)phenyl)amino) benzoic acid], the IC50 is at most 100 nM.

The molecule `O=C(O)c1ccc(Nc2ccc(C(F)(F)F)cc2)c(-c2ccncn2)c1` [Compound 60, 3-pyrimidin-4-yl-4-[4-(trifluoromethyl)anilino] benzoic acid] yielded an IC50 of 100 to 1000 nM.

The molecule `CN(C)C(=O)c1ccc(Nc2cccc(C(F)(F)F)c2)c(-c2nnn(C)n2)c1` [Compound 19, N,N-dimethyl-3-(2-methyl-2H-tetrazol-5-yl)-4-((3-(trifluoromethyl)phenyl)amino) benzamide] showed an IC50 of 100 to 1000 nM.

Consider `CC(C)NC(=O)c1ccc(Nc2cccc(C(F)(F)F)c2)c(-c2nnn(C)n2)c1` [Compound 21, N-isopropyl-3-(2-methyl-2H-tetrazol-5-yl)-4-((3-(trifluoromethyl)phenyl)amino) benzamide], for which the IC50 was at most 100 nM.

Consider `CCNC(=O)c1ccc(Nc2cccc(C(F)(F)F)c2)c(-c2nnn(C)n2)c1` [Compound 22, N-ethyl-3-(2-methyl-2H-tetrazol-5-yl)-4-((3-(trifluoromethyl)phenyl)amino) benzamide], for which the IC50 was at most 100 nM.

Molecule `Cn1cnc(-c2cc(C(=O)O)ccc2Nc2ccc(C(F)(F)F)cc2)c1` [Compound 28, 3-(1-methyl-1H-imidazol-4-yl)-4-((4-(trifluoromethyl)phenyl)amino) benzoic acid] displayed an IC50 of at most 100 nM.

Molecule `CC(C)NC(=O)c1ccc(Nc2ccc(C(F)(F)F)cc2)c(-c2ccnc(N)c2)c1` [Compound 29, 3-(2-aminopyridin-4-yl)-N-isopropyl-4-((4-(trifluoromethyl)phenyl)amino) benzamide] gave an IC50 of 100 to 1000 nM.

Turning to `Cn1nnc(-c2cc(C(=O)NS(C)(=O)=O)ccc2Nc2ccc(C(F)(F)F)cc2)n1` [Compound 15, 3-(2-methyl-2H-tetrazol-5-yl)-N-(methylsulfonyl)-4-((4-(trifluoromethyl)phenyl)amino) benzamide], the half-maximal inhibitory concentration (IC50) is at most 100 nM.

Regarding `O=C(O)c1ccc(Nc2ccc(C(F)(F)F)cc2)c(-c2ncco2)c1` [Compound 61, 3-(oxazol-2-yl)-4-((4-(trifluoromethyl)phenyl)amino) benzoic acid], the IC50 was at most 100 nM.

The molecule `CC(=O)NCCOCCOCCNC(=O)c1ccc(Nc2ccc(C(F)(F)F)cc2)c(-c2nnn(C)n2)c1` [Compound 45, N-(2-(2-(2-acetamidoethoxy)ethoxy)ethyl)-3-(2-methyl-2H-tetrazol-5-yl)-4-((4-(trifluoromethyl)phenyl)amino) benzamide] had an IC50 of at most 100 nM.

On to `COC(=O)c1ccc(Nc2ccc(C(=O)NC(C)C)cc2)c(-c2nnn(C)n2)c1` [Compound 12, methyl 4-((4-(isopropylcarbamoyl)phenyl)amino)-3-(2-methyl-2H-tetrazol-5-yl)benzoate], for which the IC50 is 1000 to 3000 nM.

`O=C(O)c1ccc(Nc2cccc(C(F)(F)F)c2)c(-c2nnn(Cc3ccccc3F)n2)c1` [Compound 27, 3-(2-(2-fluorobenzyl)-2H-tetrazol-5-yl)-4-((3-(trifluoromethyl)phenyl)amino) benzoic acid] returned an IC50 of at most 100 nM.

Turning to `O=C(O)c1ccc(Nc2ccc(C(F)(F)F)cc2)c(-c2ccc(Cl)cn2)c1` [Compound 52, 3-(5-chloro-2-pyridyl)-4-[4 (trifluoromethyl)anilino] benzoic acid], the IC50 was at most 100 nM.

`Cn1nnc(-c2cc(C(=O)NS(C)(=O)=O)ccc2Nc2cccc(C(F)(F)F)c2)n1` [Compound 23, 3-(2-methyl-2H-tetrazol-5-yl)-N-(methylsulfonyl)-4-((3-(trifluoromethyl)phenyl)amino) benzamide] registered an IC50 of at most 100 nM.

For `COc1ccnc(-c2cc(C(=O)O)ccc2Nc2ccc(C(F)(F)F)cc2)c1` [Compound 50], the IC50 is at most 100 nM.

Molecule `Nc1cc(-c2cc(C(=O)O)ccc2Nc2ccc(C(F)(F)F)cc2)ccn1` [Compound 30, 3-(2-aminopyridin-4-yl)-4-((4-(trifluoromethyl)phenyl)amino) benzoic acid] had an IC50 of at most 100 nM.

`Cn1cnc(-c2cc(C(=O)NS(N)(=O)=O)ccc2Nc2ccc(C(F)(F)F)cc2)c1` [Compound 38, 3-(1-methylimidazol-4-yl)-N-sulfamoyl-4-[4-(trifluoromethyl)anilino] benzamide]: the IC50 is at most 100 nM.

Molecule `CC(C)NC(=O)c1ccc(Nc2ccc(C(F)(F)F)cc2)c(-c2cn(C)cn2)c1` [Compound 36, N-Isopropyl-3-(-methylimidazol-4-yl)-4-[4-(trifluoromethyl)anilino] benzamide] returned a concentration for half-maximal inhibition (IC50) of at most 100 nM.

The molecule `O=C(O)c1ccc(Nc2ccc(C(F)(F)F)cc2)c(-c2nnc(C(F)(F)F)s2)c1` [Compound 58, 4-[4-(trifluoromethyl)anilino]-3-[5-(trifluoromethyl)-1,3,4-thiadiazol-2-yl]benzoic acid] gave an IC50 of at most 100 nM.

The molecule `COC(=O)c1ccc(Nc2ccc(C(F)(F)F)cc2)c(-c2nnn(Cc3ccccc3F)n2)c1` [Compound 24, methyl 3-(2-(2-fluorobenzyl)-2H-tetrazol-5-yl)-4-((4-(trifluoromethyl)phenyl)amino) benzoate] gave an IC50 of 100 to 1000 nM.

For `Cn1nnc(-c2cc(C(N)=O)ccc2Nc2cccc(C(F)(F)F)c2)n1` [Compound 6, 3-(2-methyl-2H-tetrazol-5-yl)-4-((3-(trifluoromethyl)phenyl)amino) benzamide], the IC50 was at most 100 nM.

On to `O=C(O)c1ccc(Nc2ccc(C(F)(F)F)cc2)c(-c2cocn2)c1` [Compound 57, 3-(oxazol-4-yl)-4-((4-(trifluoromethyl)phenyl)amino) benzoic acid], for which the IC50 is at most 100 nM.

In the case of `O=C(O)c1ccc(Nc2ccc(C(F)(F)F)cc2)c(-c2cc(F)ccn2)c1` [Compound 49, 3-(4-fluoro-2-pyridyl)-4-[4-(trifluoromethyl)anilino] benzoic acid], the IC50 is at most 100 nM.

Take `CCNC(=O)c1ccc(Nc2ccc(C(F)(F)F)cc2)c(-c2nnn(C)n2)c1` [Compound 10, N-ethyl-3-(2-methyl-2H-tetrazol-5-yl)-4-((4-(trifluoromethyl)phenyl)amino) benzamide]: the half-maximal inhibitory concentration (IC50) is at most 100 nM.

`CC(C)NC(=O)c1ccc(Nc2ccc(C(F)(F)F)cc2)c(-c2nnn(C)n2)c1` [Compound 11, N-isopropyl-3-(2-methyl-2H-tetrazol-5-yl)-4-((4-(trifluoromethyl)phenyl)amino) benzamide] displayed a 50% inhibitory concentration (IC50) of at most 100 nM.

Turning to `COC(=O)c1ccc(Nc2cccc(C(F)(F)F)c2)c(-c2nnn(Cc3ccccc3F)n2)c1` [Compound 26, methyl 3-(2-(2-fluorobenzyl)-2H-tetrazol-5-yl)-4-((3-(trifluoromethyl)phenyl)amino) benzoate], the 50% inhibitory concentration (IC50) lay within 100 to 1000 nM.

Regarding `Cn1cnc(-c2cc(C(=O)NC3CC3)ccc2Nc2ccc(C(F)(F)F)cc2)c1` [Compound 37, N-cyclopropyl-3-(1-methylimidazol-4-yl)-4-[4 (trifluoromethyl)anilino] benzamide], the IC50 is at most 100 nM.

The molecule `COC(=O)c1ccc(Nc2ccc(C(F)(F)F)cc2)c(-c2cc(N)ncn2)c1` [Compound 56, methyl 3-(6-aminopyrimidin-4-yl)-4-[4-(trifluoromethyl)anilino] benzoate] had an IC50 of at most 100 nM.

Usually IC50 stands for the concentration needed to halve the response being measured. High values mean lower potency, low ones higher potency.

These data come from patent US11524943B1 (Vivace Therapeutics, Inc., priority 2017, dated 2022).
